Here are results for 15 compounds from ChEMBL document CHEMBL3045801, “Synthesis of 1, 2, 4-Triazolo[1, 5-a]-1, 3, 5-triazine Derivatives for Phytotoxic Activity” (J Pestic Sci, 1995).

The subject of assay [1] is Scenedesmus acutus. The assay can be described thus: Phytotoxicity against Scenedesmus acutus assessed as inhibition of chlorophyll content after 16 hr by spectrophotometry relative to untreated control. Type of assay: functional.
Assay [2] deals with Scenedesmus acutus. Briefly: Growth inhibition of Scenedesmus acutus assessed as packed cell volume per ml of algal culture volume after 16 hr (reference value: 3.8 ul pcv/ml). Format: functional.

Consider `CCOc1cc(Oc2ccc(C(F)(F)F)cc2Cl)ccc1[N+](=O)[O-]` [OXYFLUORFEN], for which the “inhibition (INH)” value with Scenedesmus acutus [1] amounted to 2.24%. Besides, in the assay on Scenedesmus acutus [2], the Activity is recorded as 1.4 uL/ml.
As for `CN/C(=N\C=N\C#N)N/N=C(\C)c1ccccc1`, the “inhibition (INH)” value in the assay on Scenedesmus acutus [1] stood at 6.92%. Besides, the Activity with Scenedesmus acutus [2] is listed as 3.8 uL/ml.
For `CCN/C(=N\C=N\C#N)N/N=C(\C)c1ccccc1` the same measures were 27.93% and 3.6 uL/ml.
In the case of `O=C1C2=C(CCCC2)C(=O)N1c1ccc(Cl)cc1` [CHLOROPHTHALIUM], the “inhibition (INH)” value with Scenedesmus acutus [1] amounted to 2.34%. Further, in the assay with Scenedesmus acutus [2], the Activity is 2.5 uL/ml.
For `COc1ccc(/C=N/N/C(N)=N/C=N/C#N)cc1` the same measures were 28.77% and 3 uL/ml.
`Nc1ncnc2nc(-c3ccc(Cl)cc3F)nn12`: the “inhibition (INH)” value in the assay with Scenedesmus acutus [1] is 32.61%. The Activity in the assay on Scenedesmus acutus [2] amounted to 3.1 uL/ml.
In the case of `N#C/N=C/N=C(\N)N/N=C/c1ccc(Cl)cc1`, the “inhibition (INH)” value with Scenedesmus acutus [1] is reported as 29.21%. Besides, in the assay on Scenedesmus acutus [2], the Activity stood at 3.1 uL/ml.
For `C/C(=N\N/C(N)=N/C=N/C#N)c1ccc(Cl)cc1` the same measures were 37.18% and 3.4 uL/ml.
For `CN/C(=N\C=N\C#N)N/N=C/c1ccccc1` the same measures were 32.97% and 3.3 uL/ml.
For the compound `NC1=NC=NC2=NC(c3ccc(Cl)cc3F)NN12` (stereo not given), the “inhibition (INH)” value with Scenedesmus acutus [1] is on record as 10.39%. In addition, the Activity in the assay with Scenedesmus acutus [2] turned out to be 3.4 uL/ml.
For `CNc1ncnc2nc(-c3ccc(Cl)cc3)nn12` the same measures were 8.07% and 3.7 uL/ml.
As to `Nc1ncnc2nc(-c3ccc(Cl)cc3)nn12`, the “inhibition (INH)” value in the assay on Scenedesmus acutus [1] came out at 25.55%. In addition, the Activity with Scenedesmus acutus [2] was found to be 3.2 uL/ml.
For `O=C1C2=C(CCCC2)C(=O)N1c1ccc(Br)cc1F` the same measures were 79% and 2.1 uL/ml.
As to `NC1=NC=NC2=NC(c3ccc(Cl)cc3)NN12` (stereo not given), the “inhibition (INH)” value in the assay on Scenedesmus acutus [1] is 4.81%. In the assay on Scenedesmus acutus [2], the Activity came to 3.6 uL/ml.
For the compound `N#C/N=C/N=C(\N)N/N=C/c1ccc(Cl)cc1F`, in the assay with Scenedesmus acutus [1], the “inhibition (INH)” value came out at 41.65%. Further, the Activity with Scenedesmus acutus [2] worked out at 3 uL/ml.
